From patent US20250163104A1, “MACROCYCLIC IMMUNOMODULATORS” (priority 2021, published 2025)
*1 amine or outer side, *2 acyl side, *3 side chain or, on linkers, in order; H or OH if unused. Where a SMILES comes first, the peptide text is derived from it. Bridges are numbered along the chain shown (N, C = ends). [ ]: non-standard residue; d: D form. The star is where a group is joined. ξ: configuration not given here. Phe(3-CF3) = N[C@@H](Cc1cccc(C(F)(F)F)c1)C(=O)O; Ala(morpholin-4-yl) = N[C@@H](CN1CCOCC1)C(=O)O; Phe(4-COOH) = N[C@@H](Cc1ccc(C(=O)O)cc1)C(=O)O; Bip = N[C@@H](Cc1ccc(-c2ccccc2)cc1)C(=O)O; Phe(4-CN) = N#Cc1ccc(C[C@H](N)C(=O)O)cc1; Phe(3-Me) = Cc1cccc(C[C@H](N)C(=O)O)c1; γGlu = O=C(O)[C@H](CCC(=O)[*:2])N[*:1]; Phe(2-F) = N[C@@H](Cc1ccccc1F)C(=O)O; 4Pal = N[C@@H](Cc1ccncc1)C(=O)O; 2Thi = N[C@@H](Cc1cccs1)C(=O)O; Aad = N[C@@H](CCCC(=O)O)C(=O)O; Cha = N[C@@H](CC1CCCCC1)C(=O)O; Cit = NC(=O)NCCC[C@H](N)C(=O)O; Ile(3ξ) = CCC(C)[C@H](N)C(=O)O; ξIle = CC[C@H](C)C(N)C(=O)O; Carboxymethyl = O=C(O)C*; Nle = CCCC[C@H](N)C(=O)O; Orn = NCCC[C@H](N)C(=O)O; Pra = C#CC[C@H](N)C(=O)O; Dab = NCC[C@H](N)C(=O)O; Dap = NC[C@H](N)C(=O)O

Each compound was assayed against T1, human PD-1 / PD-L1-Ig binding on Jurkat cell line over-expressing human PD-1 (Jurkat-PD-1) (Homo sapiens, UniProt Q15116) (assay: Jurkat-PD-1 Cell Binding High-Content Screening Assay (CBA)). Conditions: Jurkat HPD1_PDL1 IC50, Jurkat-PD-1 cells, PE-labeled PD-L1-Ig 20 nM final.
T1 construct: expressed in transfected cells; host or cells: Jurkat
T1 sequence (Q15116 25-288): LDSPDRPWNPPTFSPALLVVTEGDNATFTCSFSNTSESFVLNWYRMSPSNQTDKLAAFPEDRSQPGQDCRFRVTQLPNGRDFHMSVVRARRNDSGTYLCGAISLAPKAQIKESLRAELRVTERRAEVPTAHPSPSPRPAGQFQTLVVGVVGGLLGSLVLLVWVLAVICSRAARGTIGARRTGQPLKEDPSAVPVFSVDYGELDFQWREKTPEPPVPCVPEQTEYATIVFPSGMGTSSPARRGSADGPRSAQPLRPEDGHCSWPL
Type: cell-based
Method in brief: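 Read-out: high-content imaging of PE-tagged PD-L1-Ig bound to Jurkat cells overexpressing human PD-1, after fixation with 4% paraformaldehyde and Hoechst 33342 nuclear staining. Ligand was used at 20 nM final for 1 hour, after a 2 h compound exposure at 37° C in serum-containing DMEM.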
For `CC(C)C[C@H]1NC(=O)[C@H](CCCN)NC(=O)[C@H](CCCCN)NC(=O)[C@H](Cc2ccc(-c3ccccc3)cc2)NC(=O)[C@H](C(C)C)NC(=O)[C@H](Cc2c[nH]c3ccccc23)NC(=O)[C@H](CC(=O)O)NC(=O)[C@H](Cc2ccc(OCC(=O)O)cc2)NC(=O)[C@H](Cc2ccncc2)NC(=O)CSC[C@@H](C(=O)N[C@@H](C)C(N)=O)NC(=O)[C@H]([C@@H](C)O)NC(=O)[C@H](C(C)C)NC(=O)[C@H](CC2CCCCC2)NC(=O)[C@H](CCN)NC1=O` [Compound 1373], the IC50 was 11.1 nM.

Same assay, conditions: Jurkat-PD-1 cells, PE-labeled PD-L1-Ig 20 nM final; read-out: Jurkat HPD1_PDL1 IC50
For `Cc1cccc(C[C@@H]2NC(=O)[C@H](CC(=O)O)NC(=O)[C@H](Cc3ccncc3)NC(=O)[C@H](Cc3ccc(OCC(=O)O)cc3)NC(=O)CSC[C@@H](C(=O)N[C@@H](C)C(N)=O)NC(=O)[C@H]([C@@H](C)O)NC(=O)[C@H](C(C)C)NC(=O)[C@H](CC3CCCCC3)NC(=O)[C@H](CCN)NC(=O)[C@@H](Cc3ccccc3)NC(=O)[C@H](CCCN)NC(=O)[C@H](CCC(=O)O)NC(=O)[C@H](Cc3ccc(-c4ccccc4)cc3)NC(=O)[C@H](C(C)C)NC2=O)c1` [Compound 1430] ({CH2CO}-Y(Carboxymethyl)[4Pal]D[Phe(3-Me)]V[Bip]E[Orn][dF][Dab][Cha]VTCA-NH2; thioether N-14), the IC50 was 10.8 nM.
Work on `Cc1cccc(C[C@@H]2NC(=O)[C@H](CC(=O)O)NC(=O)[C@H](Cc3ccc(OCC(=O)O)cc3)NC(=O)[C@H](CCCC(=O)O)NC(=O)CSC[C@@H](C(=O)N[C@@H](C)C(N)=O)NC(=O)[C@H](CO)NC(=O)[C@H](C(C)C)NC(=O)[C@H](CC3CCCCC3)NC(=O)[C@H](CCN)NC(=O)[C@@H](CC(C)C)NC(=O)[C@H](CCCN)NC(=O)[C@H](C(C)C)NC(=O)[C@H](Cc3ccc(-c4ccccc4)cc3)NC(=O)[C@H](C(C)C)NC2=O)c1` [Compound 2537] ({CH2CO}-[Aad]Y(Carboxymethyl)D[Phe(3-Me)]V[Bip]V[Orn][dL][Dab][Cha]VSCA-NH2; thioether N-14) yielded an IC50 of 18.3 nM.
With `CC[C@H](C)C1NC(=O)[C@H](Cc2ccc(-c3ccccc3)cc2)NC(=O)[C@H](C(C)C)NC(=O)[C@H](Cc2c[nH]c3ccccc23)NC(=O)[C@H](CC(N)=O)NC(=O)[C@H](Cc2ccc(O)cc2)NC(=O)[C@H](CN)NC(=O)CSC[C@@H](C(=O)N[C@@H](C)C(N)=O)NC(=O)[C@H]([C@@H](C)O)NC(=O)[C@H](C(C)C)NC(=O)[C@H](CC(C)C)NC(=O)[C@H](CCN)NC(=O)[C@@H](CC(C)C)NC(=O)[C@H](CN)NC1=O` (stereo partly drawn) [Compound 1089] ({CH2CO}-[Dap]YNWV[Bip][ξIle][Dap][dL][Dab]LVTCA-NH2; thioether N-14) the IC50 was 26.7 nM.
`CC[C@H](C)[C@@H]1NC(=O)[C@H](Cc2ccc(-c3ccccc3)cc2)NC(=O)[C@H](C(C)C)NC(=O)[C@H](Cc2c[nH]c3ccccc23)NC(=O)[C@H](CC(=O)O)NC(=O)[C@H](Cc2ccc(C(=O)O)cc2)NC(=O)[C@H](Cc2ccc(OCC(=O)O)cc2)NC(=O)CSC[C@@H](C(=O)N[C@@H](C)C(N)=O)NC(=O)[C@H]([C@@H](C)O)NC(=O)[C@H](C(C)C)NC(=O)[C@H](Cc2ccc(O)cc2)NC(=O)[C@H](CCN)NC(=O)[C@@H](CC(C)C)NC(=O)[C@H](CCCN)NC1=O` [Compound 1679] ({CH2CO}-Y(Carboxymethyl)[Phe(4-COOH)]DWV[Bip]I[Orn][dL][Dab]YVTCA-NH2; thioether N-14) gave an IC50 of 92.2 nM.
Compound `CCCC[C@@H]1NC(=O)[C@H](CCN)NC(=O)[C@@H](CC(C)C)NC(=O)[C@H](CCCN)NC(=O)[C@H](CCCNC(N)=O)NC(=O)[C@H](Cc2ccc(-c3ccccc3)cc2)NC(=O)[C@H](C(C)C)NC(=O)[C@H](Cc2c[nH]c3ccccc23)NC(=O)[C@H](CC(=O)O)NC(=O)[C@H](Cc2ccc(O)cc2)NC(=O)[C@H](CC(N)=O)NC(=O)CSC[C@@H](C(=O)N[C@@H](C)C(N)=O)NC(=O)[C@H]([C@@H](C)O)NC(=O)[C@H](C(C)C)NC1=O` [Compound 1162] ({CH2CO}-NYDWV[Bip][Cit][Orn][dL][Dab][Nle]VTCA-NH2; thioether N-14) has an IC50 of 327 nM.
In the case of `CC[C@H](C)[C@@H]1NC(=O)[C@H](Cc2ccc(-c3ccccc3)cc2)NC(=O)[C@H](C(C)C)NC(=O)[C@H](Cc2c[nH]c3ccccc23)NC(=O)[C@H](CC(=O)O)NC(=O)[C@H](Cc2ccc(OCC(=O)O)cc2)NC(=O)[C@H](CN)NC(=O)CSC[C@@H](C(=O)N[C@@H](C)C(N)=O)NC(=O)[C@H]([C@@H](C)O)NC(=O)[C@H](C(C)C)NC(=O)[C@H](Cc2ccccc2)NC(=O)[C@H](CCN)NC(=O)[C@@H](CC(C)C)NC(=O)[C@H](CCCN)NC1=O` [Compound 1658] ({CH2CO}-[Dap]Y(Carboxymethyl)DWV[Bip]I[Orn][dL][Dab]FVTCA-NH2; thioether N-14), the IC50 is reported as 19.5 nM.
Work on `CC(C)C[C@@H]1NC(=O)[C@H](CCN)NC(=O)[C@@H](CC(C)C)NC(=O)[C@H](CCCN)NC(=O)[C@H](CCC(=O)O)NC(=O)[C@H](Cc2ccc(-c3ccccc3)cc2)NC(=O)[C@H](C(C)C)NC(=O)[C@H](Cc2c[nH]c3ccccc23)NC(=O)[C@H](CC(=O)O)NC(=O)[C@H](Cc2ccc(O)cc2)NC(=O)[C@H](CC(N)=O)NC(=O)CSC[C@@H](C(=O)N[C@@H](C)C(N)=O)NC(=O)[C@H]([C@@H](C)O)NC(=O)[C@H](C(C)C)NC1=O` [Compound 1016] ({CH2CO}-NYDWV[Bip]E[Orn][dL][Dab]LVTCA-NH2; thioether N-14) yielded an IC50 of 31.9 nM.
`C#CC[C@H](NC(=O)CC[C@H](NC(=O)[C@@H]1CSCC(=O)N[C@@H](CN)C(=O)N[C@@H](Cc2ccc(OCC(=O)O)cc2)C(=O)N[C@@H](CC(=O)O)C(=O)N[C@@H](Cc2cccc(C)c2)C(=O)N[C@@H](Cc2ccc(OCC(=O)O)cc2)C(=O)N[C@@H](Cc2ccc(-c3ccccc3)cc2)C(=O)N[C@@H](Cc2ccc(OCC(=O)O)cc2)C(=O)N[C@@H](CCCN)C(=O)N[C@H](CC(C)C)C(=O)N[C@@H](CCN)C(=O)N[C@@H](CC2CCCCC2)C(=O)N[C@@H](C(C)C)C(=O)N[C@@H]([C@@H](C)O)C(=O)N1)C(=O)O)C(N)=O` [Compound 1804] ({CH2CO}-[Dap]Y(Carboxymethyl)D[Phe(3-Me)]Y(Carboxymethyl)[Bip]Y(Carboxymethyl)[Orn][dL][Dab][Cha]VTC[γGlu][Pra]-NH2; thioether N-14) showed an IC50 of 6.6 nM.
For `COc1cccc(C[C@@H]2NC(=O)[C@H](CC(=O)O)NC(=O)[C@H](Cc3ccc(OCC(=O)O)cc3)NC(=O)[C@H](Cc3cccnc3)NC(=O)CSC[C@@H](C(=O)N[C@@H](C)C(N)=O)NC(=O)[C@H]([C@@H](C)O)NC(=O)[C@H](C(C)C)NC(=O)[C@H](CC3CCCCC3)NC(=O)[C@H](CCN)NC(=O)[C@@H](CC(C)C)NC(=O)[C@H](CCCN)NC(=O)[C@H](CCC(=O)O)NC(=O)[C@H](Cc3ccc(-c4ccccc4)cc3)NC(=O)[C@H](C(C)C)NC2=O)c1` [Compound 1545], the IC50 was 17.8 nM.
Compound `CCC(C)[C@@H]1NC(=O)[C@H](Cc2ccc(-c3ccccc3)cc2)NC(=O)[C@H](C(C)C)NC(=O)[C@H](Cc2cccc(C)c2)NC(=O)[C@H](CC(=O)O)NC(=O)[C@H](Cc2ccc(C(=O)O)cc2)NC(=O)[C@H](Cc2ccncc2)NC(=O)CSC[C@@H](C(=O)N[C@H](CC(N)=O)C(N)=O)NC(=O)[C@H](CO)NC(=O)[C@H](C(C)C)NC(=O)[C@H](CC2CCCCC2)NC(=O)[C@H](CCN)NC(=O)[C@@H](CC(C)C)NC(=O)[C@H](CCCN)NC1=O` (stereo partly drawn) [Compound 2300] ({CH2CO}-[4Pal][Phe(4-COOH)]D[Phe(3-Me)]V[Bip][Ile(3ξ)][Orn][dL][Dab][Cha]VSC[dN]-NH2; thioether N-14) has an IC50 of 13.4 nM.
`CC(C)C[C@@H]1NC(=O)[C@H](CC(N)=O)NC(=O)[C@@H](CC(C)C)NC(=O)[C@H](CN)NC(=O)[C@H](C(C)C)NC(=O)[C@H](Cc2ccc(-c3ccccc3)cc2)NC(=O)[C@H](C(C)C)NC(=O)[C@H](Cc2c[nH]c3ccccc23)NC(=O)[C@H](CC(=O)O)NC(=O)[C@H](Cc2ccc(OCC(=O)O)cc2)NC(=O)[C@H](CN)NC(=O)CSC[C@@H](C(=O)NCC(N)=O)NC(=O)[C@H](CO)NC(=O)[C@H](C(C)C)NC1=O` [Compound 1289] ({CH2CO}-[Dap]Y(Carboxymethyl)DWV[Bip]V[Dap][dL]NLVSCG-NH2; thioether N-14) showed an IC50 of 11 nM.
Compound `Cc1cccc(C[C@@H]2NC(=O)[C@H](CC(=O)O)NC(=O)[C@H](Cc3ccc(C(=O)O)cc3)NC(=O)[C@H](Cc3ccncc3)NC(=O)CSC[C@@H](C(=O)N[C@@H](C)C(N)=O)NC(=O)[C@H]([C@@H](C)O)NC(=O)[C@H](C(C)C)NC(=O)[C@H](CC3CCCCC3)NC(=O)[C@H](CCN)NC(=O)[C@@H](CC(C)C)NC(=O)[C@H](CCCN)NC(=O)[C@H](C(C)(C)C)NC(=O)[C@H](Cc3ccc(-c4ccccc4)cc3)NC(=O)[C@H](C(C)C)NC2=O)c1` [Compound 1618] has an IC50 of 22.7 nM.
For `CC(C)C[C@H]1NC(=O)[C@H](CCCN)NC(=O)[C@H](CCC(=O)O)NC(=O)[C@H](Cc2ccc(-c3ccccc3)cc2)NC(=O)[C@H](C(C)C)NC(=O)[C@H](Cc2ccccc2F)NC(=O)[C@H](CC(=O)O)NC(=O)[C@H](Cc2ccc(C#N)cc2)NC(=O)[C@H](Cc2ccccc2)NC(=O)CSC[C@@H](C(=O)N[C@@H](C)C(N)=O)NC(=O)[C@H]([C@@H](C)O)NC(=O)[C@H](C(C)C)NC(=O)[C@H](CC2CCCCC2)NC(=O)[C@H](CCN)NC1=O` [Compound 2213] ({CH2CO}-F[Phe(4-CN)]D[Phe(2-F)]V[Bip]E[Orn][dL][Dab][Cha]VTCA-NH2; thioether N-14), the IC50 was 59.2 nM.
In the case of `CC(C)C[C@H]1NC(=O)[C@H](CCCN)NC(=O)[C@H](Cc2ccc(C(=O)O)cc2)NC(=O)[C@H](Cc2ccc(-c3ccccc3)cc2)NC(=O)[C@H](Cc2cccs2)NC(=O)[C@H](Cc2cccc(C(F)(F)F)c2)NC(=O)[C@H](CC(=O)O)NC(=O)[C@H](Cc2ccc(C(=O)O)cc2)NC(=O)[C@H](CN2CCOCC2)NC(=O)CSC[C@@H](C(=O)N[C@@H](CCN)C(N)=O)NC(=O)[C@H](CCC(=O)O)NC(=O)[C@H](C(C)C)NC(=O)[C@H](CC2CCCCC2)NC(=O)[C@H](CCN)NC1=O` [Example 2749] ({CH2CO}-[Ala(morpholin-4-yl)][Phe(4-COOH)]D[Phe(3-CF3)][2Thi][Bip][Phe(4-COOH)][Orn][dL][Dab][Cha]VEC[Dab]-NH2; thioether N-14), the IC50 is reported as 1.9 nM.
